# From patent US8334289B2, “Pyridin-2-one compounds and their use as modulators of the dopamine D3 receptor” (Abbott GmbH & Co. KG, priority 2004, dated 2012)
# Tests used:
# [1] = target: T1, human dopamine D3 receptors (Homo sapiens, UniProt P35462); experiment: Dopamine D3 receptor binding, displacement of [125I]-iodosulpiride; settings: membranes from HEK-293 cells stably expressing human D3 receptor; 0.1 nM [125I]-iodosulpiride; 25° C., 60 minutes
# T1 construct: expressed in transfected cells; host or cells: HEK-293 (membranes)
# Protocol: (§1) The substance to be tested was dissolved either in methanol/Chremophor® (BASF-AG) or in dimethyl sulfoxide and then diluted with water to the desired concentration.
# (§2) Triplicate mixtures were carried out.
# The incubation buffer contained 50 mM Tris, 120 mM NaCl, 5 mM KCl, 2 mM CaCl2, 2 mM MgCl2 and 0.1% bovine serum albumin, 10 μM quinolone, 0.1% ascorbic acid (prepared fresh each day). The buffer was adjusted to pH 7.4 with HCl.
# (§3) After incubation at 25° C. for 60 minutes, the mixtures were filtered under vacuum through Whatman GF/B glass fiber filters using a cell harvester. The filters were transferred by a filter transfer system into scintillation vials. After addition of 4 ml of Ultima Gold® (Packard), the samples were shaken for one hour and then the radioactivity was counted in a beta counter (Packard, Tricarb 2000 or 2200CA). The cp values were converted into dpm by means of a standard quench series with the aid of the instrument's own program.
# (§4) Evaluation of the inhibition plots took place by iterative nonlinear regression analysis using the Statistical Analysis System (SAS) similar to the “LIGAND” program described by Munson and Rodbard.
# [2] = target: T2, human dopamine D2L receptors (long isoform) (Homo sapiens, UniProt P14416); experiment: Dopamine D2L receptor binding, displacement of [125I]-iodospiperone; settings: Ki(D2L)/Ki(D3); membranes from HEK-293 cells with human D2L and D3 receptors
# T2 construct: expressed in transfected cells; host or cells: HEK-293 (membranes)
# Protocol: as §1, §2
# The incubation buffer contained 50 mM Tris, 120 mM NaCl, 5 mM KCl, 2 mM CaCl2, 2 mM MgCl2 and 0.1% bovine serum albumin. The buffer was adjusted to pH 7.4 with HCl.
# as §3, §4
# T1 sequence (P35462 whole entry): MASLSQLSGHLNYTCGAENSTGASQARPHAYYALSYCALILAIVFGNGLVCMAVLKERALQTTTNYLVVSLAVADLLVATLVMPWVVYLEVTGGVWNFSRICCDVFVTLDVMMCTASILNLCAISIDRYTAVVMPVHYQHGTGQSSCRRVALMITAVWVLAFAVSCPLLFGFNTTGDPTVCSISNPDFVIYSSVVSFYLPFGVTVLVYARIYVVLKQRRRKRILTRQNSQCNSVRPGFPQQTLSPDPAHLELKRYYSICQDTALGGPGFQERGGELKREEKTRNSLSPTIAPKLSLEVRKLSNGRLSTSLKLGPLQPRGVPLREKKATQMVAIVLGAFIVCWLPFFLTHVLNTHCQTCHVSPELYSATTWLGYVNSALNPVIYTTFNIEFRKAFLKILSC
# T2 sequence (P14416 whole entry, canonical isoform): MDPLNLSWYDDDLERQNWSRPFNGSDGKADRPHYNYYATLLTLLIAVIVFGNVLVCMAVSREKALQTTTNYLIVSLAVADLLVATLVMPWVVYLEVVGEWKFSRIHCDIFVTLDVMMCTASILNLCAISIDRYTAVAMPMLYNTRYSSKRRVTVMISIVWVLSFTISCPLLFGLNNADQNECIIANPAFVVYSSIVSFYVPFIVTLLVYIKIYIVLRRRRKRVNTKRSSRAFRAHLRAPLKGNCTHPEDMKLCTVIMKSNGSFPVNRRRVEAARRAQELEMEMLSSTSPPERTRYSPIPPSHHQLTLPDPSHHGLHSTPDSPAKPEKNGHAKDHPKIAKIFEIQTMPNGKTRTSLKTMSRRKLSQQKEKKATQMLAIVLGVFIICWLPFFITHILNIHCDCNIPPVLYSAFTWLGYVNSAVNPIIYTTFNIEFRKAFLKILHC
Ki [1] [nM],Selectivity vs. D2L [2],Compound
1.25,129,"CCCc1cc(N2CCN(CCCCn3cccc(C)c3=O)CC2)nc(C(C)(C)C)n1 [Example 7, 1-{4-[4-(2-tert-Butyl-6-propylpyrimidin-4-yl)piperazin-1-yl]butyl}-3-methyl-1H-pyridin-2-one]"
2.2,74,"COc1cccn(CCCCN2CCN(c3cc(C(F)(F)F)nc(C(C)(C)C)n3)CC2)c1=O [Example 6, 1-{4-[4-(2-tert-Butyl-6-trifluoromethylpyrimidin-4-yl)piperazin-1-yl]butyl}-3-methoxy-1H-pyridin-2-one]"
2.31,74,"Cc1cccn(CCCCN2CCN(c3cc(C(F)(F)F)nc(C(C)(C)C)n3)CC2)c1=O [Example 11, 1-{4-[4-(2-tert-Butyl-6-trifluoromethylpyrimidin-4-yl)piperazin-1-yl]butyl}-3-methyl-1H-pyridin-2-one]"
0.84,137,"CCCc1cc(N2CCN(CCCCn3ccc(C)cc3=O)CC2)nc(C(C)(C)C)n1.Cl [Example 3, 4-(2-tert-Butyl-6-propylpyrimidin-4-yl)-1-[4-(4-methyl-2-oxopyridin-1(2H)-yl)butyl]piperazin-1-ium chloride]"
1.2,51,"CCCc1cc(N2CCN(CCCCn3cccc(OC)c3=O)CC2)nc(C(C)(C)C)n1 [Example 5, 1-{4-[4-(2-tert-Butyl-6-propylpyrimidin-4-yl)piperazin-1-yl]butyl}-3-methoxy-1H-pyridin-2-one]"
